Experimental data as given in patent publication US10899758B2, “Inhibitors of the menin-MLL interaction” (Vitae Pharmaceuticals, LLC, priority 2016, dated 2021).
Where two headings read alike, the source gives them in different places.

Columns and labels:
[1] = target: T1, menin/MLL binding (biotinylated wild-type or mutated menin and MLL-AF9 fusion protein) (Homo sapiens, UniProt O00255); assay: Assay 1 (Binding Assay): AlphaLISA menin/MLL binding; settings: 5 nM biotinylated menin, MLL-AF9-FLAG lysate
T1 construct: biotinylated (1) wild-type menin or (2) mutated menin (described in Nature (2012) Vol. 482, pp. 542-548); fused on or other part: Biotin attached chemically (Sulfo-NHS-Biotin); no fused second protein is printed for menin
T1 sequence (O00255 1-459 limits assumed): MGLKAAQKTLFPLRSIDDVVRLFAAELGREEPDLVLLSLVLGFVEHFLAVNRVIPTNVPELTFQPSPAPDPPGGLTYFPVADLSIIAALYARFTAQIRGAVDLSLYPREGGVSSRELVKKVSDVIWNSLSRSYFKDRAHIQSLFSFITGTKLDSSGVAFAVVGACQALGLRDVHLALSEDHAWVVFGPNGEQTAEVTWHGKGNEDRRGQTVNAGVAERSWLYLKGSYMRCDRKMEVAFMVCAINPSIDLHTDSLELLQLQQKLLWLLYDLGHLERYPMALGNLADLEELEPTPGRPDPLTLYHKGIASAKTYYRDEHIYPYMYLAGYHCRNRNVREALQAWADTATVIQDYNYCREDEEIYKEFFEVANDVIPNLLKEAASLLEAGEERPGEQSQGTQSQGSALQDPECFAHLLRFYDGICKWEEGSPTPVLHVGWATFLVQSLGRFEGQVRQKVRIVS
Procedure, shortened: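 Biotinylated E. coli-expressed menin (wild-type or mutant), 5 nM, incubated 30 min RT with compound and HEK293 lysate of MLL1-1,396–AF9-FLAG in pH 7.4 Tris buffer, 5% DMSO, 1 mM DTT. Anti-FLAG acceptor and streptavidin donor beads added, 60 min RT, AlphaLISA signal read. IC50 from four-parameter fit of % inhibition.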

[2] = tested on: human acute monocytic leukemia cell line MV-4-11; assay: Assay 2 (Cell Proliferation Assay), ATP quantitation (CellTiter-Glo); assay type: cell-based; settings: MV-4-11 cells, read-out: Assay 2 (EC50, inhibition of cell proliferation)
Procedure, shortened: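 Cells (1.67×10^4/well, 10% FBS medium) incubated ±compound 72 h at 37 °C, 5% CO2; HL-60 served as toxicity control. ATP read by CellTiter-Glo luminescence; % inhibition scaled between DMSO and a potent menin inhibitor at ≥100×LD50.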

Structure (SMILES)	IC50 [1] [nM]	EC50 ([2]; 72 h) [nM]	EC50 ([2]; Homo sapiens, MV4-11, 72 h) [nM]
CC(C)N(C)C(=O)c1cc(F)ccc1-n1cc(C2CCC(NCC3CCC(NS(C)(=O)=O)CC3)CC2)c2ccncc21 (single isomer, unassigned) [Example 62, 5-fluoro-N-isopropyl-N-methyl-2-(3-(4-(((4-(methylsulfonamido)cyclohexyl)methyl)amino)cyclohexyl)-1H-pyrrolo[2,3-c]pyridin-1-yl)benzamide]	< 100	≥ 1000	–
CC(C)N(C)C(=O)c1cc(F)ccc1-n1cc(C2CCC(N(C)CC3CCC(NS(C)(=O)=O)CC3)CC2)c2ccncc21 (single isomer, unassigned) [Example 128, 5-fluoro-N-isopropyl-N-methyl-2-(3-(4-(methyl((4-(methylsulfonamido)cyclohexyl)methyl)amino)cyclohexyl)-1H-pyrrolo[2,3-c]pyridin-1-yl)benzamide]	< 100	–	< 100
CC(=O)N[C@H]1CC[C@H](CN2CCC(c3cn(-c4ccc(F)cc4C(=O)N(C)C(C)C)c4cnccc34)CC2)CC1 [Example 20, 2-(3-(1-(((1r,4r)-4-acetamidocyclohexyl)methyl)piperidin-4-yl)-1H-pyrrolo[2,3-c]pyridin-1-yl)-5-fluoro-N-isopropyl-N-methylbenzamide]	< 100	–	100 to 1000
CC(C)N(C)C(=O)c1cc(F)ccc1-n1cc(C2CCN(CC[C@H]3CC[C@H](NS(C)(=O)=O)CC3)CC2)c2ccncc21 [Example 19, 5-fluoro-N-isopropyl-N-methyl-2-(3-(1-(2-(trans-4-(methylsulfonamido)cyclohexyl)ethyl)piperidin-4-yl)-1H-pyrrolo[2,3-c]pyridin-1-yl)benzamide]	< 100	–	< 100

Next, values leading:

IC50 [1] [nM]	EC50 ([2]; 72 h) [nM]	EC50 ([2]; Homo sapiens, MV4-11, 72 h) [nM]	Structure (SMILES)
< 100	–	100 to 1000	CC(C)N(C)C(=O)c1cc(F)ccc1-n1cc([C@H]2CC[C@@H](N3CCC(O)CC3)CC2)c2ccncc21 [Example 109, 5-fluoro-2-(3-(cis-4-(4-hydroxypiperidin-1-yl)cyclohexyl)-1H-pyrrolo[2,3-c]pyridin-1-yl)-N-isopropyl-N-methylbenzamide]
< 100	–	< 100	CC(C)N(C)C(=O)c1cc(F)ccc1-n1cc(C2CCCN(Cc3ccc4c(c3)NC(=O)C4(C)C#N)C2)c2ccncc21 (centres unmarked) [Example 88, 2-(3-(1-((3-cyano-3-methyl-2-oxoindolin-6-yl)methyl)piperidin-3-yl)-1H-pyrrolo[2,3-c]pyridin-1-yl)-5-fluoro-N-isopropyl-N-methylbenzamide]
< 100	–	< 100	CCN(C(=O)c1cc(F)ccc1-n1cc(C2CCCN(Cc3ccc4[nH]c(=O)[nH]c4c3)C2)c2ccncc21)C(C)C (centres unmarked) [Example 47, N-ethyl-5-fluoro-N-isopropyl-2-(3-(1-((2-oxo-2,3-dihydro-1H-benzo[d]imidazol-5-yl)methyl)piperidin-3-yl)-1H-pyrrolo[2,3-c]pyridin-1-yl)benzamide]
< 100	–	< 100	CC(C)N(C)C(=O)c1cc(F)ccc1-n1cc(C2CCCN(C[C@H]3CC[C@H](NS(C)(=O)=O)CC3)CC2)c2ccncc21 (relative stereo) [Example 41, 5-fluoro-N-isopropyl-N-methyl-2-(3-(1-((trans-4-(methylsulfonamido)cyclohexyl)methyl)azepan-4-yl)-1H-pyrrolo[2,3-c]pyridin-1-yl)benzamide]
< 100	–	100 to 1000	CC(c1ccccc1)N1CCC(c2cn(-c3ccc(F)cc3C(=O)N(C)C(C)C)c3cnccc23)CC1 (centres unmarked) [Example 30, 5-fluoro-N-isopropyl-N-methyl-2-(3-(1-(1-phenylethyl)piperidin-4-yl)-1H-pyrrolo[2,3-c]pyridin-1-yl)benzamide]
< 100	–	< 100	CCN(C(=O)c1cc(F)ccc1-n1cc([C@H]2CCCN(Cc3ccc4c(c3)[nH]c(=O)n4CCO)C2)c2ccncc21)C(C)C [Example 49B, (R)-N-ethyl-5-fluoro-2-(3-(1-((1-(2-hydroxyethyl)-2-oxo-2,3-dihydro-1H-benzo[d]imidazol-5-yl)methyl)piperidin-3-yl)-1H-pyrrolo[2,3-c]pyridin-1-yl)-N-isopropylbenzamide]
